The target of one experiment is CHK1 (Homo sapiens, UniProt O14757). The experiment is described as follows: Kinobeads competition binding, HL60 cell lysate. Particulars: 10 μM free compound. More on the design: endogenous in cells; host or cells: HL60 cells. On the procedure:
To one aliquot of cell lysate 10 μM of the free compound (FIG. 3, CZC31326) was added and allowed to bind to proteins in the lysate. Then the affinity matrix with the immobilized compound (Example 1) was added to capture proteins that were not interacting with the previously added free compound. Beads were separated from the lysate and bead bound proteins were eluted in SDS sample buffer and subsequently separated by SDS-Polyacrylamide gel electrophoresis (FIG. 4). Suitable gel bands were cut out and subjected to in-gel proteolytic digestion with trypsin. The second lysate aliquot was processed identically, however no free compound was added (DMSO solvent control). Peptides originating from samples 1 and 2 were labeled with iTRAQ reagents (iTRAQ 114 and iTRAQ 117) and the combined samples were analyzed with a nano-flow liquid chromatography system coupled online to a tandem mass spectrometer (LC-MS/MS) experiment followed by iTRAQ reporter ion quantification in the MS/MS spectra (Ross et al., 2004. Mol. Cell. Proteomics 3(12):1154-1169). Further experimental protocols can be found in WO2006/134056 and a previous publication (Bantscheff et al., 2007. Nature Biotechnology 25, 1035-1044). Sepharose-beads with the immobilized compound (100 μl beads per pull-down experiment) were equilibrated in lysis buffer and incubated with a cell lysate sample containing 50 mg of protein on an end-over-end shaker (Roto Shake Genie, Scientific Industries Inc.) for 2 hours at 4° C. Beads were collected, transferred to Mobicol-columns (MoBiTech 10055) and washed with 10 ml lysis buffer containing 0.4% NP40 detergent, followed by 5 ml lysis buffer containing 0.2% detergent. To elute bound proteins, 60 μl 2×SDS sample buffer was added to the column. The column was incubated for 30 minutes at 50° C. and the eluate was transferred to a siliconized microfuge tube by centrifugation. Proteins were then alkylated with 108 mM iodoacetamid. Proteins were then separated by SDS-Polyacrylamide electrophoresis (SDS-PAGE). The peptide extracts of samples treated with 10 μM of free compound (CZC31326) and the solvent control (0.5% DMSO) were treated with different variants of the isobaric tagging reagent (iTRAQ Reagents Multiplex Kit, part number 4352135, Applied Biosystems, Foster City, Calif., USA). The iTRAQ reagents are a set of multiplexed, amine-specific, stable isotope reagents that can label peptides on amino groups in up to four different biological samples enabling simultaneous identification and quantitation of peptides. The iTRAQ reagents were used according to instructions provided by the manufacturer. The samples were resuspended in 10 μl 50 mM TEAB solution, pH 8.5 and 10 μl ethanol were added. The iTRAQ reagent was dissolved in 120 μl ethanol and 10 μl of reagent solution were added to the sample. The labeling reaction was performed at room temperature for one hour on a horizontal shaker and stopped by adding 5 μl of 100 mM TEAB and 100 mM glycine in water. The two labeled sampled were then combined, dried in a vacuum centrifuge and resuspended in 10 μl of 0.1% formic acid in water. Relative protein quantitation was performed using peak areas of iTRAQ reporter ion signals essentially as described in an earlier publication (Bantscheff et al., 2007. Nature Biotechnology 25, 1035-1044).

Another experiment concerns the target T1, IKKe (Homo sapiens, UniProt Q14164).
T1 sequence (Q14164 1-716): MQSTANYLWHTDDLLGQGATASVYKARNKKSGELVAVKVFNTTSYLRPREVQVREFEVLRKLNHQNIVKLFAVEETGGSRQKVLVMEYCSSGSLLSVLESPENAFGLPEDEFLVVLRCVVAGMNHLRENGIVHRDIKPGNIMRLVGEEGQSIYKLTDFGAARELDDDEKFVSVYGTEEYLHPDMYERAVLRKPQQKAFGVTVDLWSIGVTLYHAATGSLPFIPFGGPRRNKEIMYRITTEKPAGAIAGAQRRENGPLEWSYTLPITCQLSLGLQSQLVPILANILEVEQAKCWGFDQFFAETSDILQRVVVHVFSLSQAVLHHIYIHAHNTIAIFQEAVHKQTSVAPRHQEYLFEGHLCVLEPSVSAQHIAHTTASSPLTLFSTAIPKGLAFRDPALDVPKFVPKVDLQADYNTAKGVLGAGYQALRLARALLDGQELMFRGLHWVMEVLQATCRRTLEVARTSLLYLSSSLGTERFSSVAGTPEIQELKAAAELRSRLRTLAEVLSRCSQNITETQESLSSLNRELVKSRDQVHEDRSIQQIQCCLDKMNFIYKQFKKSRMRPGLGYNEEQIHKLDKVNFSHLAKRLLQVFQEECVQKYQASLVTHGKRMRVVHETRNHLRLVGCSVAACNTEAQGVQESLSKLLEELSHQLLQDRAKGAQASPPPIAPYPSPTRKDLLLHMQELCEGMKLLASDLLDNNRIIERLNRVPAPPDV
The experiment is described as follows: Kinobeads competition binding, L-363 cell lysate. More on the design: endogenous in cells; host or cells: L-363 (treated with MG132 before harvest). Particulars: 10 μM free compound, L-363 lysate. The method, then:
To one aliquot of cell lysate 10 μM of the free compound (FIG. 3, CZC31326) was added and allowed to bind to proteins in the lysate. Then the affinity matrix with the immobilized compound was added to capture proteins that were not interacting with the previously added free compound. Beads were separated from the lysate and bead bound proteins were eluted in SDS sample buffer and subsequently separated by SDS-Polyacrylamide gel electrophoresis (FIG. 8). Suitable gel bands were cut out and subjected to in-gel proteolytic digestion with trypsin. The second lysate aliquot was processed identically, however no free compound was added (DMSO solvent control). Peptides originating from samples 1 and 2 were labeled with iTRAQ reagents (iTRAQ 114 and iTRAQ 117) and the combined samples were analyzed with a nano-flow liquid chromatography system coupled online to a tandem mass spectrometer (LC-MS/MS) experiment followed by iTRAQ reporter ion quantification in the MS/MS spectra as described in Example 2.
For this experiment the human plasma cell leukaemia line L-363 was used (German Collection of Microorganisms and Cell Cultures, DSMZ number ACC49, Braunschweig, Germany). Cells were treated for three hours with 20 μM of the proteasome inhibitor MG132 (Z-Leu-Leu-Leu-al, Sigma C2211) prior to cell harvesting.

One compound from US20120270237A9, “METHODS FOR THE IDENTIFICATION OF KINASE INTERACTING MOLECULES AND FOR THE PURIFICATION OF KINASE PROTEINS” (Cellzone AG, priority 2009, published 2012) can be followed below.

Chain of CHK1 (O14757 whole entry): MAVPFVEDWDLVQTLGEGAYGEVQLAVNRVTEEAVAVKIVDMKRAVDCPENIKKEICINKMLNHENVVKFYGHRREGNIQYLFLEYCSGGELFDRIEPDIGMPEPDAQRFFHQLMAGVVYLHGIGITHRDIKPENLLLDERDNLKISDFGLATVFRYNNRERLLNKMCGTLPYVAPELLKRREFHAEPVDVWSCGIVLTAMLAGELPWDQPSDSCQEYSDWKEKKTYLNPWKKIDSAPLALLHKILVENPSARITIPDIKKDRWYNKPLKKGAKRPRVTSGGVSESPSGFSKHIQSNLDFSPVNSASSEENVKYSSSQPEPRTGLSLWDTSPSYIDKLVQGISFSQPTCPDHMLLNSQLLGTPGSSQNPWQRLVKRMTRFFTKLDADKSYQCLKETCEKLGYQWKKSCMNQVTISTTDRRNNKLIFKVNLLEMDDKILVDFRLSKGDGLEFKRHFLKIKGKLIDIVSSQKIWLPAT

The compound `CS(=O)(=O)Nc1ccccc1Nc1nc(Nc2cccc(OCCN)c2)ncc1Cl` [CZC31326, N-(2-(2-(3-(2-aminoethoxy)phenylamino)-5-chloropyrimidin-4-ylamino)phenyl)methanesulfonamide] had a Competition % on CHK1 of 95.7%. The same compound gave an inhibition at 10 µM on IKKe of 89.4%.

As a reminder, the inhibition is the share of the control response that was lost under treatment.
